Experimental data published in patent US7960164B2, “Selective growth medium for Listeria spp” (Paradigm Diagnostics, Inc., priority 2004, dated 2011).

Key:
L. monocytogenes = experiment: Effect of acriflavin on hemolytic activity of L. monocytogenes; assay type: cell-based
Bacillus spp. = experiment: Inhibition of Bacillus spp. by acriflavin; assay type: cell-based

Substance: Acriflavin
- Effect on hemolytic activity of L. monocytogenes (L. monocytogenes): inhibits the hemolytic activity of L. monocytogenes
- Inhibition of Bacillus spp. (Bacillus spp.): consistently inhibits all of the Bacillus spp.
